The text below walks through data of article PMC6156125, “Chemistry and Hypoglycemic Activity of GPR119 Agonist ZB-16” (Frontiers in Endocrinology, 2018).

Bounds are passed on as bounds.

A short description of series [1]: Biotransformation in vitro, microsomal stability (rat). It is filed as in vitro ADME. How it is done: The metabolism of the compounds was studied in commercially available microsomal fractions derived from human and rat hepatocytes. Test compounds (0.5 μM) were incubated with microsomal fractions in the presence of NADPH during 30 min in a shaker at 37°C. Reactions were stopped at 0, 5, 10, 15, and 30 min by adding acetonitrile. After proteins precipitation, the remaining amount of the test compound in the supernatant was detected with high performance liquid chromatography tandem-mass spectrometry (HPLC-MS/MS) method using Agilent 1260 liquid chromatograph (Agilent Technologies, Santa Clara, CA, USA) and a QTRAP6500 triple quadrupole mass spectrometer with a TurboIonSpray electro-spraying module (ABSciex, Foster City, CA, USA) ([15]). Incubation was performed twice, with at least 2 measurements for each replicate (n ≥ 3). The half-life (T1/2), the clearance in vitro (CLint) and the remaining amount of substance (% of initial quantity) were calculated.

The target in another series is T1, CYP1A2 (Homo sapiens, UniProt P05177).
T1 construct: purchased Invitrogen Corporation, Carlsbad, CA, USA
T1 sequence (P05177 1-516): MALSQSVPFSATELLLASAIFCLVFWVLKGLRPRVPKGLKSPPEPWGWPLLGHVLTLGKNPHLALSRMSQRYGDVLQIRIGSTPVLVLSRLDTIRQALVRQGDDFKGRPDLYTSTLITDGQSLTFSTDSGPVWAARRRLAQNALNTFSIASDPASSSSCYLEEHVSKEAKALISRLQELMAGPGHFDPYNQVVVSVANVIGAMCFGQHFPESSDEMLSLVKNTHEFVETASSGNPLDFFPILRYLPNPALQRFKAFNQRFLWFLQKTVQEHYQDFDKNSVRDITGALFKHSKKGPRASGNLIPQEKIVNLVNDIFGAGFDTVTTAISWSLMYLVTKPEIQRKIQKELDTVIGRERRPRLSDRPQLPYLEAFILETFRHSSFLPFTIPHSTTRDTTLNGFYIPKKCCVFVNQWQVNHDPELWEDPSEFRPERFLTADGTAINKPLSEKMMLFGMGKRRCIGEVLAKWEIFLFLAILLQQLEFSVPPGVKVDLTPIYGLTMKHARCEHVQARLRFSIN
Description: CYP inhibition, Vivid CYP450 Screening Kit. The following applies: 0.0046 to 10 μM tested. It is filed as in vitro ADME. Here is the method:
(§1) Briefly, the reaction was initiated by adding NADP^+ and a substrate converted to fluorescent derivates by specific CYP isozyme. The reaction was terminated by adding 1M Tris. The fluorescence of the reaction product, which was proportional to CYP isozyme activity, was measured. […] The minimal signal was defined as the signal obtained without enzyme incubation. The inhibitory action of test compounds on the CYP isozymes was expressed in terms of median inhibitory concentration (IC50).

In a further series the target is T2, CYP2C19 (Homo sapiens, UniProt P33261).
T2 construct: purchased Invitrogen Corporation, Carlsbad, CA, USA
T2 sequence (P33261 whole entry): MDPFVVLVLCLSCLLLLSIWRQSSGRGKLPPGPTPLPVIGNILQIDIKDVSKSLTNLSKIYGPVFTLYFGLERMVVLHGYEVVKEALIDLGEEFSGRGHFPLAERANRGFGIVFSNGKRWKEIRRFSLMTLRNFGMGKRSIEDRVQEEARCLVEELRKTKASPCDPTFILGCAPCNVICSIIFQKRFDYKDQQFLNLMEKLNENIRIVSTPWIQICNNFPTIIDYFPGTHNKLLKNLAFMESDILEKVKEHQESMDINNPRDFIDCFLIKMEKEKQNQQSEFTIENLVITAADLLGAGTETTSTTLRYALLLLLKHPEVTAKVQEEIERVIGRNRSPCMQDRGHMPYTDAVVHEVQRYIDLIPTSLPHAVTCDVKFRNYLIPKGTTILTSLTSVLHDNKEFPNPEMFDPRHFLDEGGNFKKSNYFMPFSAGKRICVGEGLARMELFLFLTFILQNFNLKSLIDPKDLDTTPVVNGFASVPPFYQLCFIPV
Description: CYP inhibition, Vivid CYP450 Screening Kit. It is filed as in vitro ADME. To be noted: 0.0046 to 10 μM tested. Here is the method:
as §1

A further series concerns the target T3, CYP2C9 (Homo sapiens, UniProt P11712).
T3 construct: purchased Invitrogen Corporation, Carlsbad, CA, USA
The series is described as follows: CYP inhibition, Vivid CYP450 Screening Kit. The following applies: 0.0046 to 10 μM tested. It is filed as in vitro ADME. Here is the method: as §1

In another series the target is T4, CYP2D6 (Homo sapiens, UniProt P10635).
T4 construct: purchased Invitrogen Corporation, Carlsbad, CA, USA
T4 sequence (P10635 whole entry): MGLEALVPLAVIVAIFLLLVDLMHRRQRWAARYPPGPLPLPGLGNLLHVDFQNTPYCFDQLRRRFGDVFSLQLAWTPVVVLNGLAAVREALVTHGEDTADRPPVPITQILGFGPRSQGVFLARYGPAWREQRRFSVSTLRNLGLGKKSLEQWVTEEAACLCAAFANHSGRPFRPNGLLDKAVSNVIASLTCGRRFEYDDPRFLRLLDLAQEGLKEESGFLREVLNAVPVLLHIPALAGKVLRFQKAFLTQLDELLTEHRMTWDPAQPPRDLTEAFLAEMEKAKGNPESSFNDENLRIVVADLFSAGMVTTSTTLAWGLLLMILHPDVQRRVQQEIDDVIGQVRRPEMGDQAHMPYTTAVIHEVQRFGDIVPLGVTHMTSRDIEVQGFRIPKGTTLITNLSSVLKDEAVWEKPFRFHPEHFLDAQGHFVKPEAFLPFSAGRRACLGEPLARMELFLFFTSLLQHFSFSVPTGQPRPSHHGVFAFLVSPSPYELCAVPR
The series is described as follows: CYP inhibition, Vivid CYP450 Screening Kit. The class given is in vitro ADME. To be noted: 0.0046 to 10 μM tested. How it is done: as §1

Another series has as its target T5, CYP3A4 (Homo sapiens, UniProt P08684).
T5 construct: purchased Invitrogen Corporation, Carlsbad, CA, USA
The series is described as follows: CYP inhibition, Vivid CYP450 Screening Kit. The class given is in vitro ADME. To be noted: 0.0046 to 10 μM tested. Here is the method: as §1

For series [2], the system named is intact fasted female Wistar rats. The series is described as follows: Hypoglycemic action in intact rats after single oral administration. The following applies: 0.1–1 mg/kg oral. It is filed as in vivo, rat. Here is the method: Blood glucose levels were evaluated in the peripheral blood (from the tail vein) of intact fasted (6 h) female Wistar rats using a glucometer Contour TS (Bayer, Germany) at 60, 120, and 180 min after single oral administration of each ZB-09 analogs (in doses of 0.1, 1, and 10 mg/kg). The female animals were used because of their advantages in toxicological studies shown by several authors ([23]).

The subject of series [3] is rats with streptozotocin-nicotinamide (STZ-NA) induced T2D. Description: Hypoglycemic activity after single oral administration in T2D rat model. The class given is in vivo. The following applies: single oral 1 mg/kg, fasted STZ-NA T2D rats, over a 3 h period. How it is done: Procedures were performed in 40 female Wistar rats weighing 250–280 g. Streptozotocin-nicotinamide-induced rat model of T2D was used ([24], [25]). Briefly, streptozotocin (Sigma, St. Louis, MO, USA) was administered i.p. to overnight fasted rats (65 mg/kg in 100 mmol/l citrate buffer, Ph 4.5). Nicotinamide (Sigma, St. Louis, MO, USA) (230 mg/kg) dissolved in saline was administered i.p. 15 min before streptozotocin. STZ-NA T2D had been confirmed 72 h after in rats with blood glucose levels in a range 9–14 mmol/l measured in fasting (6 h) conditions. […] […] For OGTT rats received an oral dose of […] glucose dissolved in saline; blood glucose levels were monitored every 30 min for 2 h after glucose administration. Sitagliptin dose was chosen in accordance with published data ([26]).

For series [4] the test system is unchanged. The series is described as follows: Hypoglycemic activity after continuous (28 days) oral administration in T2D rat model, OGTT. The class given is in vivo. How it is done: Procedures were performed in 40 female Wistar rats weighing 250–280 g. Streptozotocin-nicotinamide-induced rat model of T2D was used ([24], [25]). Briefly, streptozotocin (Sigma, St. Louis, MO, USA) was administered i.p. to overnight fasted rats (65 mg/kg in 100 mmol/l citrate buffer, Ph 4.5). Nicotinamide (Sigma, St. Louis, MO, USA) (230 mg/kg) dissolved in saline was administered i.p. 15 min before streptozotocin. STZ-NA T2D had been confirmed 72 h after in rats with blood glucose levels in a range 9–14 mmol/l measured in fasting (6 h) conditions. […] Following the continuous oral administration of sitagliptin (10 mg/kg), ZB-16 (1 mg/kg) or saline during 28 days STZ-NA T2D confirmation the fasting blood glucose levels were measured, and oral glucose tolerance test (OGTT) was performed. For OGTT rats received an oral dose of […] glucose dissolved in saline; blood glucose levels were monitored every 30 min for 2 h after glucose administration. Sitagliptin dose was chosen in accordance with published data ([26]).

T5 sequence (P08684 whole entry): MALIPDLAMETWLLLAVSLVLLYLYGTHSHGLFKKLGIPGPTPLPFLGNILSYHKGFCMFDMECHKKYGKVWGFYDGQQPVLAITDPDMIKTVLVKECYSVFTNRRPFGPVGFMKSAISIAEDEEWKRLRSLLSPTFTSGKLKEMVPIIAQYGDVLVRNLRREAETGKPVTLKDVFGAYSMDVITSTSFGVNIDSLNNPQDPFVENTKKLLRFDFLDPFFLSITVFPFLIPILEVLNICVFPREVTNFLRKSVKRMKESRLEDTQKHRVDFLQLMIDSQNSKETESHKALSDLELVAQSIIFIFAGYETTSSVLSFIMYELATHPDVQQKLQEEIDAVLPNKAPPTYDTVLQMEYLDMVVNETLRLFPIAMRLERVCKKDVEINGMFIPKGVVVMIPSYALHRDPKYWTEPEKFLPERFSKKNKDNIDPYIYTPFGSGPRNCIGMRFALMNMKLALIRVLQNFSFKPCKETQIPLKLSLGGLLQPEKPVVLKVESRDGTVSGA
T3 sequence (P11712 whole entry): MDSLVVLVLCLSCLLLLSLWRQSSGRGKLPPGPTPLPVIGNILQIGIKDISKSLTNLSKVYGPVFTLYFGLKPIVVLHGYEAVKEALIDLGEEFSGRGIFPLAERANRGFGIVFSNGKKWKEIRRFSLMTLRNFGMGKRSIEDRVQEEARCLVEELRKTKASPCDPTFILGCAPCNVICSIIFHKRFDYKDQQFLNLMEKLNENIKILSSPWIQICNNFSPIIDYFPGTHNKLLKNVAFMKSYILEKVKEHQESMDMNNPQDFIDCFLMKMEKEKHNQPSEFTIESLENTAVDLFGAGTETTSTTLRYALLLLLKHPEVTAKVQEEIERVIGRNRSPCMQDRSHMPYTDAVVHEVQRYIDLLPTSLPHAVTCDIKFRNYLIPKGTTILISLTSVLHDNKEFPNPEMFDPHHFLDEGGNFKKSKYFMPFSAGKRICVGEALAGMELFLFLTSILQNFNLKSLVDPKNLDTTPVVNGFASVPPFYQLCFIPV

In series [1] (Rat microsomal fraction), `O=S1(=O)COc2cc(-c3ccc(OCC4CCN(c5ncc(Cl)cn5)CC4)c(F)c3)ccc21` [ZB-16] gave an ER of 0.58. Besides, the CLh in series [1] (Rat microsomal fraction, in mL/min/kg (unit assumed)) is 32.09. The microsomal CLint at 0.5 μM in [1] (liver microsomal fraction) turned out to be 42.8 µL/min/mg. The half-life at 0.5 μM in [1] (liver microsomal fraction, 0.5 μM, NADPH, read-out: t1/2, min) was 1.08 h. Besides, the IC50 against CYP1A2, against CYP2C19, at CYP2C9, on CYP2D6 and against CYP3A4 was above 10 µM each time. For the same molecule, the “blood glucose levels after single oral administration” value in [2] is “significant decrease”. Besides, the “decrease of blood glucose levels” value in series [3] was 24%. Further, the “reduction in the area under the glucose concentration-time curve compared to the control group” value in series [4] (OGTT on day 28, 1 mg/kg/day oral) was determined as 22%. Further, the “blood glucose levels lower than in saline group” value in series [4] (OGTT on day 28, 1 mg/kg/day oral, 30 min after oral glucose (3 mg/kg)) is on record as 27%. The “mean blood glucose level” value in series [4] (OGTT on day 28, 1 mg/kg/day oral, two hours after glucose administration) worked out at 9.1 ± 0.37 mmol/L. Further, the blood glucose levels entry in series [4] (daily oral ZB-16 1 mg/kg or sitagliptin 10 mg/kg for 28 days, STZ-NA T2D) is “reduction”.
